# Reference: US11678665B2, “Pyrazine-4-carbamate or -urea derivatives as herbicides” (Syngenta Participations AG, priority 2017, dated 2023)
# Tested on: Avena fatua (AVEFA)
# Experiment: Pre-emergence herbicidal activity, AVEFA
# Format: in vivo
# Set-up: key: 5=total damage to plant; 0=no damage to plant
# Conditions: 1000 g/ha, sprayed pre-emergence, evaluated after 13 days, damage score 0-5
# Procedure: (§1) Seeds of a variety of test species were sown in standard soil in pots: Triticum aestivium (TRZAW), Avena fatua (AVEFA), Alopecurus myosuroides (ALOMY), Echinochloa crus-galli (ECHCG), Lolium perenne (LOLPE), and Setaria faberi (SETFA). After cultivation for one day (pre-emergence) under controlled conditions in a glasshouse (at 24/16° C., day/night; 14 hours light; 65% humidity), the plants were sprayed with an aqueous spray solution derived from the formulation of the technical active ingredient in acetone/water (50:50) solution containing 0.5% Tween 20 (polyoxyethelyene sorbitan monolaurate, CAS RN 9005-64-5). The test plants were then grown in a glasshouse under controlled conditions (at 24/16° C., day/night; 14 hours light; 65% humidity) and watered twice daily. After 13 days, the test was evaluated (5=total damage to plant; 0=no damage to plant).
row,SMILES,Control of weed species after pre-emergence application: AVEFA
1,CCC(=O)N(C(=O)CC)c1ncc(-c2cncc(F)c2)nc1C(F)(F)F [Compound I1],1
2,CCC(=O)Nc1ncc(-c2cncc(F)c2)nc1C [Compound I2],0
3,"CC(=O)Nc1ncc(-c2cncc(F)c2)nc1C(F)(F)F [Compound I3, 2-(acetylamino)-3-trifluoromethyl-5-(5-fluoropyrid-3-yl)pyrazine]",1
4,"CC(=O)N(C(C)=O)c1ncc(-c2cncc(F)c2)nc1C(F)(F)F [Compound I4, 2-(diacetylamino)-3-trifluoromethyl-5-(5-fluoropyrid-3-yl)pyrazine]",1
5,"CC(=O)N(C(C)=O)c1ncc(-c2cncc(F)c2)nc1C [Compound I5, 2-(diacetylamino)-3-methyl-5-(5-fluoropyrid-3-yl)pyrazine]",0

# Tested on: Avena fatua (AVEFA)
# Experiment: Post-emergence herbicidal activity, AVEFA
# Format: in vivo
# Conditions: 1000 g/ha, sprayed post-emergence (8 days cultivation), evaluated after 13 days, damage score 0-5
# Procedure: (§2) Seeds of a variety of test species were sown in standard soil in pots: Triticum aestivium (TRZAW), Avena fatua (AVEFA), Alopecurus myosuroides (ALOMY), Echinochloa crus-galli (ECHCG), Lolium perenne (LOLPE), and Setaria faberi (SETFA). After 8 days cultivation (post-emergence) under controlled conditions in a glasshouse (at 24/16° C., day/night; 14 hours light; 65% humidity), the plants were sprayed with an aqueous spray solution derived from the formulation of the technical active ingredient in acetone/water (50:50) solution containing 0.5% Tween 20 (polyoxyethelyene sorbitan monolaurate, CAS RN 9005-64-5). The test plants were then grown in a glasshouse under controlled conditions (at 24/16° C., day/night; 14 hours light; 65% humidity) and watered twice daily. After 13 days, the test was evaluated (5=total damage to plant; 0=no damage to plant).
row,SMILES,Control of weed species after post-emergence application: AVEFA
1,CCC(=O)N(C(=O)CC)c1ncc(-c2cncc(F)c2)nc1C(F)(F)F [Compound I1],2
2,CCC(=O)Nc1ncc(-c2cncc(F)c2)nc1C [Compound I2],1
3,"CC(=O)Nc1ncc(-c2cncc(F)c2)nc1C(F)(F)F [Compound I3, 2-(acetylamino)-3-trifluoromethyl-5-(5-fluoropyrid-3-yl)pyrazine]",3
4,"CC(=O)N(C(C)=O)c1ncc(-c2cncc(F)c2)nc1C(F)(F)F [Compound I4, 2-(diacetylamino)-3-trifluoromethyl-5-(5-fluoropyrid-3-yl)pyrazine]",2
5,"CC(=O)N(C(C)=O)c1ncc(-c2cncc(F)c2)nc1C [Compound I5, 2-(diacetylamino)-3-methyl-5-(5-fluoropyrid-3-yl)pyrazine]",1

# Tested on: Lolium perenne (LOLPE)
# Experiment: Post-emergence herbicidal activity, LOLPE
# Format: in vivo
# Set-up: key: 5=total damage to plant; 0=no damage to plant
# Conditions: 1000 g/ha, sprayed post-emergence (8 days cultivation), evaluated after 13 days, damage score 0-5
# Procedure: as §2
row,SMILES,Control of weed species after post-emergence application: LOLPE
1,CCC(=O)N(C(=O)CC)c1ncc(-c2cncc(F)c2)nc1C(F)(F)F [Compound I1],1
2,CCC(=O)Nc1ncc(-c2cncc(F)c2)nc1C [Compound I2],0
3,"CC(=O)Nc1ncc(-c2cncc(F)c2)nc1C(F)(F)F [Compound I3, 2-(acetylamino)-3-trifluoromethyl-5-(5-fluoropyrid-3-yl)pyrazine]",1
4,"CC(=O)N(C(C)=O)c1ncc(-c2cncc(F)c2)nc1C(F)(F)F [Compound I4, 2-(diacetylamino)-3-trifluoromethyl-5-(5-fluoropyrid-3-yl)pyrazine]",1
5,"CC(=O)N(C(C)=O)c1ncc(-c2cncc(F)c2)nc1C [Compound I5, 2-(diacetylamino)-3-methyl-5-(5-fluoropyrid-3-yl)pyrazine]",1

# Tested on: Triticum aestivium (TRZAW)
# Experiment: Pre-emergence herbicidal activity, TRZAW
# Format: in vivo
# Set-up: key: 5=total damage to plant; 0=no damage to plant
# Conditions: 1000 g/ha, sprayed pre-emergence, evaluated after 13 days, damage score 0-5
# Procedure: as §1
row,SMILES,Control of weed species after pre-emergence application: TRAZW
1,CCC(=O)N(C(=O)CC)c1ncc(-c2cncc(F)c2)nc1C(F)(F)F [Compound I1],0
2,CCC(=O)Nc1ncc(-c2cncc(F)c2)nc1C [Compound I2],0
3,"CC(=O)Nc1ncc(-c2cncc(F)c2)nc1C(F)(F)F [Compound I3, 2-(acetylamino)-3-trifluoromethyl-5-(5-fluoropyrid-3-yl)pyrazine]",0
4,"CC(=O)N(C(C)=O)c1ncc(-c2cncc(F)c2)nc1C(F)(F)F [Compound I4, 2-(diacetylamino)-3-trifluoromethyl-5-(5-fluoropyrid-3-yl)pyrazine]",3
5,"CC(=O)N(C(C)=O)c1ncc(-c2cncc(F)c2)nc1C [Compound I5, 2-(diacetylamino)-3-methyl-5-(5-fluoropyrid-3-yl)pyrazine]",0

# Tested on: Echinochloa crus-galli (ECHCG)
# Experiment: Pre-emergence herbicidal activity, ECHCG
# Format: in vivo
# Conditions: 1000 g/ha, sprayed pre-emergence, evaluated after 13 days, damage score 0-5
# Procedure: as §1
row,SMILES,Control of weed species after pre-emergence application: ECHCG
1,CCC(=O)N(C(=O)CC)c1ncc(-c2cncc(F)c2)nc1C(F)(F)F [Compound I1],2
2,CCC(=O)Nc1ncc(-c2cncc(F)c2)nc1C [Compound I2],2
3,"CC(=O)Nc1ncc(-c2cncc(F)c2)nc1C(F)(F)F [Compound I3, 2-(acetylamino)-3-trifluoromethyl-5-(5-fluoropyrid-3-yl)pyrazine]",3
4,"CC(=O)N(C(C)=O)c1ncc(-c2cncc(F)c2)nc1C(F)(F)F [Compound I4, 2-(diacetylamino)-3-trifluoromethyl-5-(5-fluoropyrid-3-yl)pyrazine]",3
5,"CC(=O)N(C(C)=O)c1ncc(-c2cncc(F)c2)nc1C [Compound I5, 2-(diacetylamino)-3-methyl-5-(5-fluoropyrid-3-yl)pyrazine]",2

# Tested on: Triticum aestivium (TRZAW)
# Experiment: Post-emergence herbicidal activity, TRZAW
# Format: in vivo
# Set-up: key: 5=total damage to plant; 0=no damage to plant
# Conditions: 1000 g/ha, sprayed post-emergence (8 days cultivation), evaluated after 13 days, damage score 0-5
# Procedure: as §2
row,SMILES,Control of weed species after post-emergence application: TRAZW
1,CCC(=O)N(C(=O)CC)c1ncc(-c2cncc(F)c2)nc1C(F)(F)F [Compound I1],0
2,CCC(=O)Nc1ncc(-c2cncc(F)c2)nc1C [Compound I2],0
3,"CC(=O)Nc1ncc(-c2cncc(F)c2)nc1C(F)(F)F [Compound I3, 2-(acetylamino)-3-trifluoromethyl-5-(5-fluoropyrid-3-yl)pyrazine]",1
4,"CC(=O)N(C(C)=O)c1ncc(-c2cncc(F)c2)nc1C(F)(F)F [Compound I4, 2-(diacetylamino)-3-trifluoromethyl-5-(5-fluoropyrid-3-yl)pyrazine]",0
5,"CC(=O)N(C(C)=O)c1ncc(-c2cncc(F)c2)nc1C [Compound I5, 2-(diacetylamino)-3-methyl-5-(5-fluoropyrid-3-yl)pyrazine]",1

# Tested on: Alopecurus myosuroides (ALOMY)
# Experiment: Post-emergence herbicidal activity, ALOMY
# Format: in vivo
# Set-up: key: 5=total damage to plant; 0=no damage to plant
# Conditions: 1000 g/ha, sprayed post-emergence (8 days cultivation), evaluated after 13 days, damage score 0-5
# Procedure: as §2
row,SMILES,Control of weed species after post-emergence application: ALOMY
1,CCC(=O)N(C(=O)CC)c1ncc(-c2cncc(F)c2)nc1C(F)(F)F [Compound I1],0
2,CCC(=O)Nc1ncc(-c2cncc(F)c2)nc1C [Compound I2],0
3,"CC(=O)Nc1ncc(-c2cncc(F)c2)nc1C(F)(F)F [Compound I3, 2-(acetylamino)-3-trifluoromethyl-5-(5-fluoropyrid-3-yl)pyrazine]",1
4,"CC(=O)N(C(C)=O)c1ncc(-c2cncc(F)c2)nc1C(F)(F)F [Compound I4, 2-(diacetylamino)-3-trifluoromethyl-5-(5-fluoropyrid-3-yl)pyrazine]",0
5,"CC(=O)N(C(C)=O)c1ncc(-c2cncc(F)c2)nc1C [Compound I5, 2-(diacetylamino)-3-methyl-5-(5-fluoropyrid-3-yl)pyrazine]",0

# Tested on: Echinochloa crus-galli (ECHCG)
# Experiment: Post-emergence herbicidal activity, ECHCG
# Format: in vivo
# Conditions: 1000 g/ha, sprayed post-emergence (8 days cultivation), evaluated after 13 days, damage score 0-5
# Procedure: as §2
row,SMILES,Control of weed species after post-emergence application: ECHCG
1,CCC(=O)N(C(=O)CC)c1ncc(-c2cncc(F)c2)nc1C(F)(F)F [Compound I1],4
2,CCC(=O)Nc1ncc(-c2cncc(F)c2)nc1C [Compound I2],4
3,"CC(=O)Nc1ncc(-c2cncc(F)c2)nc1C(F)(F)F [Compound I3, 2-(acetylamino)-3-trifluoromethyl-5-(5-fluoropyrid-3-yl)pyrazine]",3
4,"CC(=O)N(C(C)=O)c1ncc(-c2cncc(F)c2)nc1C(F)(F)F [Compound I4, 2-(diacetylamino)-3-trifluoromethyl-5-(5-fluoropyrid-3-yl)pyrazine]",3
5,"CC(=O)N(C(C)=O)c1ncc(-c2cncc(F)c2)nc1C [Compound I5, 2-(diacetylamino)-3-methyl-5-(5-fluoropyrid-3-yl)pyrazine]",2

# Tested on: Lolium perenne (LOLPE)
# Experiment: Pre-emergence herbicidal activity, LOLPE
# Format: in vivo
# Set-up: key: 5=total damage to plant; 0=no damage to plant
# Conditions: 1000 g/ha, sprayed pre-emergence, evaluated after 13 days, damage score 0-5
# Procedure: as §1
row,SMILES,Control of weed species after pre-emergence application: LOLPE
1,CCC(=O)N(C(=O)CC)c1ncc(-c2cncc(F)c2)nc1C(F)(F)F [Compound I1],1
2,CCC(=O)Nc1ncc(-c2cncc(F)c2)nc1C [Compound I2],0
3,"CC(=O)Nc1ncc(-c2cncc(F)c2)nc1C(F)(F)F [Compound I3, 2-(acetylamino)-3-trifluoromethyl-5-(5-fluoropyrid-3-yl)pyrazine]",0
4,"CC(=O)N(C(C)=O)c1ncc(-c2cncc(F)c2)nc1C(F)(F)F [Compound I4, 2-(diacetylamino)-3-trifluoromethyl-5-(5-fluoropyrid-3-yl)pyrazine]",0
5,"CC(=O)N(C(C)=O)c1ncc(-c2cncc(F)c2)nc1C [Compound I5, 2-(diacetylamino)-3-methyl-5-(5-fluoropyrid-3-yl)pyrazine]",1

# Tested on: Alopecurus myosuroides (ALOMY)
# Experiment: Pre-emergence herbicidal activity, ALOMY
# Format: in vivo
# Set-up: key: 5=total damage to plant; 0=no damage to plant
# Conditions: 1000 g/ha, sprayed pre-emergence, evaluated after 13 days, damage score 0-5
# Procedure: as §1
row,SMILES,Control of weed species after pre-emergence application: ALOMY
1,CCC(=O)N(C(=O)CC)c1ncc(-c2cncc(F)c2)nc1C(F)(F)F [Compound I1],0
2,CCC(=O)Nc1ncc(-c2cncc(F)c2)nc1C [Compound I2],0
3,"CC(=O)Nc1ncc(-c2cncc(F)c2)nc1C(F)(F)F [Compound I3, 2-(acetylamino)-3-trifluoromethyl-5-(5-fluoropyrid-3-yl)pyrazine]",0
4,"CC(=O)N(C(C)=O)c1ncc(-c2cncc(F)c2)nc1C(F)(F)F [Compound I4, 2-(diacetylamino)-3-trifluoromethyl-5-(5-fluoropyrid-3-yl)pyrazine]",0
5,"CC(=O)N(C(C)=O)c1ncc(-c2cncc(F)c2)nc1C [Compound I5, 2-(diacetylamino)-3-methyl-5-(5-fluoropyrid-3-yl)pyrazine]",0

# Tested on: Setaria faberi (SETFA)
# Experiment: Post-emergence herbicidal activity, SETFA
# Format: in vivo
# Conditions: 1000 g/ha, sprayed post-emergence (8 days cultivation), evaluated after 13 days, damage score 0-5
# Procedure: as §2
row,SMILES,Control of weed species after post-emergence application: SETFA
1,CCC(=O)N(C(=O)CC)c1ncc(-c2cncc(F)c2)nc1C(F)(F)F [Compound I1],4
2,CCC(=O)Nc1ncc(-c2cncc(F)c2)nc1C [Compound I2],4
3,"CC(=O)Nc1ncc(-c2cncc(F)c2)nc1C(F)(F)F [Compound I3, 2-(acetylamino)-3-trifluoromethyl-5-(5-fluoropyrid-3-yl)pyrazine]",4
4,"CC(=O)N(C(C)=O)c1ncc(-c2cncc(F)c2)nc1C(F)(F)F [Compound I4, 2-(diacetylamino)-3-trifluoromethyl-5-(5-fluoropyrid-3-yl)pyrazine]",4

# Tested on: Setaria faberi (SETFA)
# Experiment: Pre-emergence herbicidal activity, SETFA
# Format: in vivo
# Conditions: 1000 g/ha, sprayed pre-emergence, evaluated after 13 days, damage score 0-5
# Procedure: as §1
row,SMILES,Control of weed species after pre-emergence application: SETFA
1,CCC(=O)N(C(=O)CC)c1ncc(-c2cncc(F)c2)nc1C(F)(F)F [Compound I1],3
2,CCC(=O)Nc1ncc(-c2cncc(F)c2)nc1C [Compound I2],3
3,"CC(=O)Nc1ncc(-c2cncc(F)c2)nc1C(F)(F)F [Compound I3, 2-(acetylamino)-3-trifluoromethyl-5-(5-fluoropyrid-3-yl)pyrazine]",4
4,"CC(=O)N(C(C)=O)c1ncc(-c2cncc(F)c2)nc1C(F)(F)F [Compound I4, 2-(diacetylamino)-3-trifluoromethyl-5-(5-fluoropyrid-3-yl)pyrazine]",4
5,"CC(=O)N(C(C)=O)c1ncc(-c2cncc(F)c2)nc1C [Compound I5, 2-(diacetylamino)-3-methyl-5-(5-fluoropyrid-3-yl)pyrazine]",3
